Where two headings read alike, the source gives them in different places.
Assays:
[1] = Relaxivity measurements at 3.0 T (whole body MRI scanner, 37 °C) in water and human plasma; assay type: physicochemical; conditions: normalized to Gd, average ± standard deviation
Experimental: Relaxivity Measurements at 3.0 T
Relaxivity measurements at 3.0 T were performed with a whole body 3.0 T MRI Scanner (Philips Intera, Philips Healthcare, Hamburg, Germany) using a knee-coil (SENSE-Knee-8, Philips Healthcare, Hamburg, Germany). The sample tubes (CryoTubetm Vials, Thermo Scientific 1.8 mL, Roskilde, Denmark) were positioned in 3 rows of 4 and 5 tubes in a plastic holder in a box filled with water. The temperature was adjusted to 37° C. For the MRI sequence the shortest possible echo-time (TE) with 7.46 milliseconds was used. The inversion times were chosen to optimize the sequence to measure T1 values corresponding to the estimated T1 range of all relaxation times of contrast media containing solutions. The following inversion times (TIs) were applied: 50, 100, 150, 200, 300, 500, 700, 1000, 1400, 2100, 3200, and 4500 milliseconds. The sequence was run with a constant relaxation delay of 3.4 seconds after the registration of the last echo (variable TR in the range from 3450 to 7900 milliseconds). For details of the fit procedure, see Rohrer et. al. (Invest. Radiol. 2005; 40, 11: 715-724). The experimental matrix of the phantom measurement was 320×320.
The relaxivities were evaluated using three different concentrations of each compound (3 concentrations between 0.05 and 2 mM).
The T1 relaxation times of Example compounds were measured in water and human plasma. Human plasma preparation: For each experiment fresh blood was taken from a volunteer using 10 mL citrate-tubes (Sarstedt S-Monovette 02.1067.001, 10 mL, Citrate). The 10 mL citrate-tubes were carefully inverted 10 times to mix blood and anticoagulant and centrifuged for 15 minutes at 1811 g at room temperature (Eppendorf, Centrifuge 5810R).
The relaxivities ri (where i=1, 2) were calculated on the basis of the measured relaxation rates Ri in water and plasma: Ri=Ri(0)+ri[CGd], where Ri(0) represent the relaxation rate of the respective solvent and CGd the concentration of the compound normalized to the Gadolinium (Table 2).

[2] = Water solubility (exploratory, 10 mM Tris-HCl, 20 °C); assay type: physicochemical; conditions: water (10 mM Tris-HCl buffer), pH 7.4
Experimental: The exploratory water solubilities of the compounds were determined at room temperature (20° C.) in 0.5 mL buffer solution (10 mM Tris-HCl) in the microcentrifuge tubes (Eppendorf, 2.0 mL safe-lock caps). The solid compounds were added stepwise to the buffer solution. The suspension was mixed using a shaker (Heidolph Reax 2000) and treated 5 min in an ultrasound bath (Bandelin, Sonorex Super RK255H).

[3] = Dynamic CT diffusion phantom study (dialysis cassette in fetal bovine serum); assay type: physicochemical; conditions: dialysis cassette 20,000 MWCO, 20 mmol Gd/L, CT signal over 30 h
Experimental: The described dynamic CT diffusion study compares the ability of Examples 1-10 and Reference compounds 1 and 4 to pass a semipermeable membrane (20 kDa). A 128-row clinical CT device (SOMATOM Definition, 128; Siemens Healthcare, Forchheim, Germany) was used to monitor the diffusion through a semipermeable membrane at 100 kV and 104 mA. Single measurements were performed at 0 min, 1 min, 2 min, 3 min, 5 min, 10 min, 15 min, 20 min, 30 min, 45 min, 60 min, 2 h, 3 h, 5 h, 7 h, 22 h, 24 h, 30 h after placing the dialysis cassette (Slide-A-Lyser, 20,000 MWCO, 0.1-0.5 mL Capacity, Thermo Scientific, Roskilde, Denmark) filled with contrast agent in fetal bovine serum solution (FBS, Sigma, F7524). The images were reconstructed with a slice thickness of 2.4 mm and a B30 convolution kernel. The used concentration in the dialysis cassettes of the investigated Examples 1-10 and Reference compounds 1 and 4 was 20 mmol Gd/L.
The imaging results for all investigated Examples and the Reference compounds 1 and 4 for the time points 0 min and 30 h after placing the cassettes in the FBS solution are depicted in FIG. 1. For image analysis, regions of interest were manually drawn on 1 centrally located slice for each time point (a representative measurement region is indicated in FIG. 1: Image RC1).

[4] = Relaxivity measurements at 1.4 T (MiniSpec mq60, 60 MHz, 37 °C) in water and human plasma; assay type: physicochemical; conditions: 1.41 T, normalized to Gd
Experimental: Relaxivity Measurements at 1.4 T
Relaxivity measurements at 1.41 T were performed using a MiniSpec mq60 spectrometer (Bruker Analytik, Karlsruhe, Germany) operating at a resonance frequency of 60 MHz and a temperature of 37° C. The T1 relaxation times were determined using the standard inversion recovery (IR) method with a fixed relaxation delay of at least 5×T1. The variable inversion time (TI) was calculated automatically by the standard software of the MiniSpec mq60 (8 steps). The T2 measurements were done by using a Carr-Purcell-Meiboom-Gill (CPMG) pulse sequence, applying a relaxation delay of at least 5×T1.
Each relaxivity measurement was performed using three different Gd concentrations (3 concentrations between 0.05 and 2 mM). The T1 and T2 relaxation times of the example compounds 1 to 10 were measured in different media for example in water and human plasma. Human plasma preparation: For each experiment fresh blood was taken from a volunteer using 10 mL citrate-tubes (Sarstedt S-Monovette 02.1067.001, 10 mL, Citrate). The 10 mL citrate-tubes were carefully inverted 10 times to mix blood and anticoagulant and centrifuged for 15 minutes at 1811 g at room temperature (Eppendorf, Centrifuge 5810R).
The relaxivities ri (where i=1, 2) were calculated on the basis of the measured relaxation rates Ri in water and plasma: Ri=Ri(0)+ri[CGd], where Ri(0) represent the relaxation rate of the respective solvent and CGd the concentration of the compound normalized to the Gadolinium. The Gadolinium concentrations of the investigated solutions were verified by Inductively Coupled Plasma Mass Spectrometry (ICP-MS Agilent 7500a, Waldbronn, Germany).

[5] = 37 °C, cited from earlier work
[6] = 1.5 T, bovine plasma instead of human plasma, from Rohrer et al.
[7] = 3.0 T, plasma, reference compounds marked ^ (Rohrer et al., bovine plasma per Table 1 footnote)
[8] = 3.0 T, reference compounds marked ^ (Rohrer et al. per Table 1 footnote)

Row | Molecule | r1 human plasma ([1]; human plasma) [L/mmol/s] | r1 water ([1]; water) [L/mmol/s] | Solubility [2] [mg/100 mL] | Diffusion half-live (20 kDa) [3] | r1 human plasma [4] [L/mmol/s] | r1 water [4] [L/mmol/s] | r1 human plasma [5, 6] [L/mmol/s] | r1 water ([5]; 1.5 T, from Rohrer et al.) [L/mmol/s] | r1 human plasma [5, 7] [L/mmol/s] | r1 water [5, 8] [L/mmol/s]
1 | CCOCCN(CC(=O)NCC(CNC(=O)CN(CCOCC)C(=O)CN1CCN(CC(=O)[O-])CCN(CC(=O)[O-])CCN(CC(=O)[O-])CC1)(CNC(=O)CN(CCOCC)C(=O)CN1CCN(CC(=O)[O-])CCN(CC(=O)[O-])CCN(CC(=O)[O-])CC1)CNC(=O)CN(CCOCC)C(=O)CN1CCN(CC(=O)[O-])CCN(CC(=O)[O-])CCN(CC(=O)[O-])CC1)C(=O)CN1CCN(CC(=O)[O-])CCN(CC(=O)[O-])CCN(CC(=O)[O-])CC1.[Gd+3].[Gd+3].[Gd+3].[Gd+3] [Example 4, Tetragadolinium {4,10-bis(carboxylatomethyl)-7-[16-(2-ethoxyethyl)-11,11-bis[({[(2-ethoxyethyl){[4,7,10-tris(carboxylatomethyl)-1,4,7,10-tetraazacyclododecan-1-yl]-acetyl}amino]acetyl}amino)methyl]-8,14,17-trioxo-6-{[4,7,10-tris(carboxylatomethyl)-1,4,7,10-tetraazacyclododecan-1-yl]acetyl}-3-oxa-6,9,13,16-tetraazaoctadecan-18-yl]-1,4,7,10-tetraazacyclododecan-1-yl}acetate] | 11.3 ± 0.01 | 10.1 ± 0.2 | >1000 | 10.1 h | 12.5 | 11.1 |  |  |  | 
2 | Gadomer-17 [RC4] |  |  |  | No diffusion |  |  | 16 | 17.3 | 13 ± 1 | 13.0 ± 0.7
3 | CCOc1ccc(CC(CN(CCN(CC(=O)[O-])CC(=O)[O-])CC(=O)[O-])N(CC(=O)[O-])CC(=O)[O-])cc1.[Gd+3].[Na+].[Na+] (stereo not drawn) [RC3, gadoxetate disodium] |  |  |  |  |  |  | 6.9 | 4.7 | 6.2 ± 0.3 | 4.3 ± 0.3
4 | O=C([O-])CN1CCN(CC(=O)[O-])CCN(CC(=O)N(CC(=O)NCC(CNC(=O)CN(C(=O)CN2CCN(CC(=O)[O-])CCN(CC(=O)[O-])CCN(CC(=O)[O-])CC2)c2ccccc2)(CNC(=O)CN(C(=O)CN2CCN(CC(=O)[O-])CCN(CC(=O)[O-])CCN(CC(=O)[O-])CC2)c2ccccc2)CNC(=O)CN(C(=O)CN2CCN(CC(=O)[O-])CCN(CC(=O)[O-])CCN(CC(=O)[O-])CC2)c2ccccc2)c2ccccc2)CCN(CC(=O)[O-])CC1.[Gd+3].[Gd+3].[Gd+3].[Gd+3] [Example 9, Tetragadolinium [4,10-bis(carboxylatomethyl)-7-{2,5,11,14-tetraoxo-3,13-diphenyl-8,8-bis({[(phenyl{[4,7,10-tris(carboxylatomethyl)-1,4,7,10-tetraazacyclododecan-1-yl]-acetyl}amino)acetyl]amino}methyl)-15-[4,7,10-tris(carboxylatomethyl)-1,4,7,10-tetra-azacyclododecan-1-yl]-3,6,10,13-tetraazapentadec-1-yl}-1,4,7,10-tetraazacyclododecan-1-yl]acetate] |  |  | >1000 | 15.1 h | 12.0 | 11.0 |  |  |  | 
5 | O=C([O-])CN1CCN(CC(=O)[O-])CCN(CC(=O)N(CC(=O)NCC(CNC(=O)CN(Cc2ccccc2)C(=O)CN2CCN(CC(=O)[O-])CCN(CC(=O)[O-])CCN(CC(=O)[O-])CC2)(CNC(=O)CN(Cc2ccccc2)C(=O)CN2CCN(CC(=O)[O-])CCN(CC(=O)[O-])CCN(CC(=O)[O-])CC2)CNC(=O)CN(Cc2ccccc2)C(=O)CN2CCN(CC(=O)[O-])CCN(CC(=O)[O-])CCN(CC(=O)[O-])CC2)Cc2ccccc2)CCN(CC(=O)[O-])CC1.[Gd+3].[Gd+3].[Gd+3].[Gd+3] [Example 10, Tetragadolinium [4,10-bis(carboxylatomethyl)-7-{3,13-dibenzyl-8,8-bis({[(benzyl{[4,7,10-tris(carboxylatomethyl)-1,4,7,10-tetraazacyclododecan-1-yl]acetyl}amino)-acetyl]amino}methyl)-2,5,11,14-tetraoxo-15-[4,7,10-tris(carboxylatomethyl)-1,4,7,10-tetraazacyclododecan-1-yl]-3,6,10,13-tetraazapentadec-1-yl}-1,4,7,10-tetraazacyclo-dodecan-1-yl]acetate] |  |  | >1000 | 15.0 h | 13.3 | 11.5 |  |  |  | 
6 | CNC[C@H](O)[C@@H](O)[C@H](O)[C@H](O)CO.CNC[C@H](O)[C@@H](O)[C@H](O)[C@H](O)CO.O=C([O-])CN(CCN(CC(=O)[O-])CC(=O)O)CCN(CC(=O)[O-])CC(=O)O.[Gd+3] [RC2, gadopentetate dimeglumine] |  |  |  |  |  |  | 4.1 | 3.3 | 3.7 ± 0.2 | 3.1 ± 0.3

— patent US10975060B2, “High relaxivity gadolinium chelate compounds for use in magnetic resonance imaging” (BAYER PHARMA AKTIENGESELLSCHAFT, priority 2016, dated 2021)
